# Measurements from PMC10821025, “Bioprospection of Tenellins Produced by the Entomopathogenic Fungus Beauveria neobassiana” (Journal of Fungi, 2024).
# Like-named read-outs stand apart in the source and are kept apart here.
# What was measured:
# [1] = tested on: Acinetobacter baumanii [DSM 30008]; test: Serial dilution assay (MIC); type: cell-based; details: Acinetobacter baumannii, DSM30008
# Protocol: (§1) All isolated compounds were assessed for their antimicrobial activity using a serial dilution assay over a concentration range from 67 to 0.5 µg/mL following the previously described protocols. In brief, the antimicrobial activity of all isolated metabolites was assessed by determining their minimum inhibitory concentration (MIC) against a range of different pathogens, including five fungal species: Candida albicans [DSM 1665], Mucor hiemalis [DSM 2656], Schizosaccharomyces pombe [DSM 70572], Rhodotorula glutinis [DSM 10134], and Wickerhamomyces anomalus [DSM 6766], as well as various Gram-positive: Staphylococcus aureus [DSM 346], Bacillus subtilis [DSM 10], Mycolicibacterium smegmatis [ATCC 700084], and Gram-negative bacteria: Acinetobacter baumanii [DSM 30008], Escherichia coli [DSM 1116], Chromobacterium violaceum [DSM 30191], and Pseudomonas aeruginosa [PA14]. In our experiments, gentamicin served as the positive control against most bacteria, while nystatin acted as the positive control against all fungi. For specific microorganisms, namely A. baumannii, B. subtilis, and M. smegmatis, ciprofloxacin, oxytetracycline, and kanamycin were used as positive controls, respectively.
# [2] = tested on: human endocervical adenocarcinoma (KB-3.1); test: Cytotoxicity assay, KB3.1; type: cell-based; details: 5 days of incubation
# Protocol: (§2) The cytotoxicity of isolated compounds was determined as previously described over a concentration range between […] against two mammalian cell lines: mouse fibroblasts (L-929) and human endocervical adenocarcinoma (KB-3.1). […] Following 5 days of incubation, we determined the minimum concentration of the tested compounds required to achieve 50% growth inhibition, expressed as IC50 values.
# [3] = tested on: S. aureus (DSM 1104) biofilm formation; test: Biofilm inhibition assay (Crystal Violet staining); type: cell-based, Staphylococcus aureus; details: for concentration below which biofilm inhibitory activity is lost: S. aureus biofilm, tested 125–7.8 µg/mL; for Biofilm inhibition (% ± SD): S. aureus (DSM 1104)
# Protocol: The compounds were evaluated for their ability to inhibit S. aureus (DSM 1104) biofilm formation, following the established procedure. Briefly, serially diluted compounds (125–7.8 µg/mL) were co-incubated with S. aureus in 96-well plates in CASO medium supplemented with 4% of glucose (see Supplementary Materials). Biofilm inhibition was assessed by using Crystal Violet staining after […], with microporenic acid A serving as a positive control and methanol as solvent control.
# Biofilm inhibition assays were condu cted acco rding to th e methodolo g y previousl y described (Soliga et al., 2021), targeting the inhibition of biofilm formation in Staphylococcus aureus […]
# S. aureus were cultured i n LB and CASO medium at 37 °C for 18 h, respect ivel y, in a shaker at 120 rpm after being thawed from a -20 °C stock solution. The culture's optical densit y at 600 nm (OD600) was measured and adjusted to a 0.1 McFarland standard in M63 minimal medium supplemented with necessar y nutrients and CASO medi um with 4% glucose for S. aureus, respectively. Microtiter plates were loaded with 150 µL of the bacterial suspension containing s eriall y diluted test compounds (7.8 -125 µg/m L) and incubated for 24 h at 37 °C. The evaluation of biofilm inhibition was performed by staining the biofilm with 0.1% cr ystal violet (CV). After staining, the plates were washed, and the biofilm dissolved in 95% ethanol. The absorbance of the dissolved biofilm was measured at 530 nm using a plat e reader. Negative control involved methanol (2.5%) while microporenic acid A at a concentration range of 7.8 to 125 µg/mL were used as the positive control for S. aureus (Chepkirui et al., 2018). All experiments were performed three times, and the standard deviation (SD) was maintained at or below 15% for S. aureus .
# Differences between sam ples and the control grou p were determined b y a t wo-tailed Student’s t-test. Statistical significan ce was defined as p < 0.01. Anal ysis was carri ed out using GraphPad Prism 9® (GraphPad Software, San Diego, CA, USA). […]
# [4] = tested on: Staphylococcus aureus [DSM 346]; test: Serial dilution assay (MIC); type: cell-based
# Protocol: as §1
# [5] = tested on: Bacillus subtilis [DSM 10]; test: Serial dilution assay (MIC); type: cell-based
# Protocol: as §1
# [6] = tested on: Candida albicans [DSM 1665]; test: Serial dilution assay (MIC); type: cell-based
# Protocol: as §1
# [7] = tested on: Escherichia coli [DSM 1116]; test: Serial dilution assay (MIC); type: cell-based
# Protocol: as §1
# [8] = tested on: Pseudomonas aeruginosa [PA14]; test: Serial dilution assay (MIC); type: cell-based
# Protocol: as §1
# [9] = tested on: Mycolicibacterium smegmatis [ATCC 700084]; test: Serial dilution assay (MIC); type: cell-based; details: for MIC: Mycolicibacterium smegmatis, ATCC700084
# Protocol: as §1
# [10] = tested on: Mucor hiemalis [DSM 2656]; test: Serial dilution assay (MIC); type: cell-based
# Protocol: as §1
# [11] = tested on: mouse fibroblasts (L-929); test: Cytotoxicity assay, L929; type: cell-based; details: L929 (fibroblast), 5 days of incubation
# Protocol: as §2
# [12] = tested on: Chromobacterium violaceum [DSM 30191]; test: Serial dilution assay (MIC); type: cell-based
# Protocol: as §1
# [13] = tested on: breast cancer (MCF-7) cell line; test: Cytotoxicity assay, MCF-7; type: cell-based; details: Homo sapiens, MCF7, 120 h
# [14] = tested on: lung cancer (A-549) cell line; test: Cytotoxicity assay, A549; type: cell-based; details: Homo sapiens
# [15] = tested on: Wickerhamomyces anomalus [DSM 6766]; test: Serial dilution assay (MIC); type: cell-based
# Protocol: as §1
# [16] = tested on: Schizosaccharomyces pombe [DSM 70572]; test: Serial dilution assay (MIC); type: cell-based
# Protocol: as §1
# [17] = tested on: Rhodotorula glutinis [DSM 10134]; test: Serial dilution assay (MIC); type: cell-based
# Protocol: as §1
# [18] = Homo sapiens, KB 3-1, 120 h, KB3.1 (endocervical adenocarcinoma)
# [19] = KB3.1 (endocervical adenocarcinoma)
# [20] = Staphylococcus aureus, DSM1104, read-out: Biofilm inhibition (% ± SD), S. aureus (DSM 1104), 62.5 µg/ml
# [21] = Staphylococcus aureus, DSM1104, read-out: Biofilm inhibition (% ± SD), S. aureus (DSM 1104), 125 µg/ml
structure (smiles),measurement,setting,value
"O=C(O)c1cn(C2CC2)c2cc(N3CCNCC3)c(F)cc2c1=O [Ciprofloxacin, reference compound]",MIC,[1],0.52 µg/mL
"O=C(O)c1c(O)c(-c2ccc(O)cc2)cn(O)c1=O [Compound 1, Pretenellin C]",IC50,"[2]; Homo sapiens, KB 3-1, 120 h, KB3.1 (ovary)",> 37 µg/mL
same,IC50 (µM),"[2]; KB3.1 (endocervical adenocarcinoma), listed as pretenellin C (1)",weak or no activity
same,concentration below which biofilm inhibitory activity is lost,[3],31.3 µg/mL
same,inhibition at 31.25 µg/mL,"[3]; Staphylococcus aureus, DSM1104, S. aureus (DSM 1104), 31.25 µg/ml, read-out: Biofilm inhibition (% ± SD)",46 ± 9%
same,inhibition at 62.5 µg/mL,"[3]; Staphylococcus aureus, DSM1104, S. aureus (DSM 1104), 62.5 µg/ml, read-out: Biofilm inhibition (% ± SD)",63 ± 16%
same,inhibition at 125 µg/mL,"[3]; Staphylococcus aureus, DSM1104, S. aureus (DSM 1104), 125 µg/ml, read-out: Biofilm inhibition (% ± SD)",74 ± 5%
same,MIC,"[4]; DSM346, read-out: MIC",> 67 µg/mL
same,MIC,"[5]; DSM10, read-out: MIC",> 67 µg/mL
same,MIC,"[6]; DSM1665, read-out: MIC",> 67 µg/mL
same,MIC,"[7]; DSM1116, read-out: MIC",> 67 µg/mL
same,MIC,[8]; read-out: MIC,> 67 µg/mL
same,MIC,"[9]; Mycobacterium smegmatis, read-out: MIC",> 67 µg/mL
same,MIC,"[10]; DSM2656, read-out: MIC",> 67 µg/mL
same,IC50 (µM),[11]; listed as pretenellin C (1),weak or no activity
same,IC50,"[11]; Mus musculus, L929, 120 h",> 37 µg/mL
"CCC(C)/C=C(C)/C=C/C(=O)c1c(O)c(-c2ccc(O)cc2)c[nH]c1=O (stereo not drawn) [Compound 3, Pretenellin B]",IC50,[2]; [18],20.2 µM
same,IC50 (µM),[2]; [19],weak or no activity
same,inhibitory activity on S. aureus biofilm formation (in words),[3]; 125–7.8 µg/mL,promising activities in a dose-dependent manner
same,Biofilm inhibition (% ± SD),"[3]; 7.8 µg/ml, listed as pretenellin B (3)",ca. 30%
same,inhibition at 7.8 µg/mL,"[3]; Staphylococcus aureus, DSM1104, read-out: Biofilm inhibition (% ± SD), S. aureus (DSM 1104), 7.8 µg/ml",37 ± 7%
same,inhibition at 15.62 µg/mL,"[3]; Staphylococcus aureus, DSM1104, read-out: Biofilm inhibition (% ± SD), S. aureus (DSM 1104), 15.62 µg/ml",52 ± 6%
same,inhibition at 31.25 µg/mL,"[3]; Staphylococcus aureus, DSM1104, read-out: Biofilm inhibition (% ± SD), S. aureus (DSM 1104), 31.25 µg/ml",79 ± 8%
same,inhibition at 62.5 µg/mL,[3]; [20],83 ± 6%
same,inhibition at 125 µg/mL,[3]; [21],83 ± 6%
same,MIC,[4]; DSM346,66.6 µg/mL
same,MIC,[5]; DSM10,66.6 µg/mL
same,MIC,[6]; DSM1665,> 67 µg/mL
same,MIC,[7]; DSM1116,> 67 µg/mL
same,MIC,[8],> 67 µg/mL
same,MIC,[9],> 67 µg/mL
same,MIC,[12]; DSM30191,> 67 µg/mL
same,MIC,[10]; DSM2656,> 67 µg/mL
same,IC50 (µM),[11],weak or no activity
same,IC50,"[11]; Mus musculus, L929, 120 h",48.2 µM
"CCC(/C=C(C)/C=C/C(=O)c1c(O)c(-c2ccc(O)cc2)c[nH]c1=O)CO (stereo not drawn) [Compound 6, Pyridovericin]",IC50,"[13]; MCF-7 (breast), 5 days of incubation, read-out: IC50",7300 nM
same,IC50,[2]; [18],4.9 to 6.8 µM
same,IC50,[2]; [19],4.9 µM
same,IC50,"[14]; 120 h, A549 (lung), 5 days of incubation, read-out: IC50",24100 nM
same,concentration below which biofilm inhibitory activity is lost,[3],62.5 µg/mL
same,inhibition at 62.5 µg/mL,[3]; [20],48 ± 5%
same,inhibition at 125 µg/mL,[3]; [21],64 ± 14%
same,MIC,[4]; DSM346,66.6 µg/mL
same,MIC,[5]; DSM10,66.6 µg/mL
same,MIC,[6]; DSM1665,> 67 µg/mL
same,MIC,[7]; DSM1116,> 67 µg/mL
same,MIC,[8],> 67 µg/mL
same,MIC,[9],> 67 µg/mL
same,MIC,[10]; DSM2656,> 67 µg/mL
same,IC50,[11],5.7 µM
same,IC50,"[11]; Mus musculus, L929, 120 h",4.9 to 6.8 µM
"C/C(=C\c1csc(C)n1)[C@@H]1C[C@@H]2O[C@]2(C)CCC[C@H](C)[C@H](O)[C@@H](C)C(=O)C(C)(C)[C@@H](O)CC(=O)O1 [Epothilone B, reference compound]",IC50,"[13]; read-out: IC50, Positive Control Epothilone B (nM)",0.07 nM
same,IC50,"[14]; A549, 120 h, read-out: IC50, Positive Control Epothilone B (nM)",0.05 nM
"CNC(C)C1CCC(N)C(OC2C(N)CC(N)C(OC3OCC(C)(O)C(NC)C3O)C2O)O1 (stereo not drawn) [Gentamycin, reference compound]",MIC,"[4]; DSM346, read-out: MIC",0.21 µg/mL
same,MIC,"[7]; DSM1116, read-out: MIC",0.42 µg/mL
same,MIC,[8]; read-out: MIC,0.21 µg/mL
same,MIC,"[12]; DSM30191, read-out: MIC",1.7 µg/mL
"NC[C@H]1O[C@H](O[C@H]2[C@H](O)[C@@H](O[C@H]3O[C@H](CO)[C@@H](O)[C@H](N)[C@H]3O)[C@H](N)C[C@@H]2N)[C@H](O)[C@@H](O)[C@@H]1O [Kanymycin, reference compound]",MIC (µg/mL),[9]; Mycobacterium smegmatis,1.70 ^K µg/mL
"CC(C)=CCC/C(C)=C/CC/C(C)=C/CC/C(C)=C/CO[C@@H](C(=O)O)[C@H](CC(=O)O)C(=O)O [Microporenic acid A, reference compound]",Biofilm inhibition (% ± SD),[3]; 7.8 µg/ml,41 ± 9%
same,Biofilm inhibition (% ± SD),[3]; 15.62 µg/ml,70 ± 13%
same,Biofilm inhibition (% ± SD),[3]; 31.25 µg/ml,85 ± 1%
same,Biofilm inhibition (% ± SD),[3]; 62.5 µg/ml,84 ± 1%
same,Biofilm inhibition (% ± SD),[3]; 125 µg/ml,86 ± 0%
"C[C@@H]1[C@H](O)[C@@H](C)/C=C/C=C/CC/C=C/C=C/C=C/C=C/C(O[C@H]2O[C@H](C)[C@@H](O)[C@H](N)[C@@H]2O)CC2O[C@](O)(CC(O)C(O)CCC(O)CC(O)CC(O)CC(=O)O[C@H]1C)CC(O)C2C(=O)O (stereo partly drawn) [Nystatin, reference compound]",MIC (µg/mL),[15],16.6 ^N µg/mL
same,MIC (µg/mL),[16],4.20 ^N µg/mL
same,MIC (µg/mL),[6],8.3 ^N µg/mL
same,MIC (µg/mL),[17],4.20 ^N µg/mL
same,MIC (µg/mL),[10],8.30 ^N µg/mL
"CN(C)[C@@H]1C(O)=C(C(N)=O)C(=O)[C@@]2(O)C(O)=C3C(=O)c4c(O)cccc4[C@@](C)(O)[C@H]3[C@H](O)[C@@H]12 [Oxytetracycline, reference compound]",MIC,"[5]; DSM10, read-out: MIC",16.6 µg/mL
